Assay results as given in patent publication US9809598B2 (Merck Patent GmbH, priority 2014, dated 2017).
Counter-ions that a name gives are not always drawn.

Key:
PARP-1 = biological target: T1, PARP-1 (Homo sapiens, UniProt P09874); assay: PARP-1 autoparsylation assay (HTRF); assay type: biochemical; details: His-tagged Parp-1, autoparsylation HTRF
T1 construct: purchased Enzo Life Sciences GmbH, Lörrach, Germany
Outline: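 His-tagged enzyme auto-modifies itself using biotinylated NAD/NAD; product detected by TR-FRET between cryptate anti-His antibody and Xlent-streptavidin, as emission ratio.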

TNKS1 = biological target: T2, TNKS1 (Homo sapiens, UniProt O95271); assay: TNKS1 activity ELISA (autoparsylation assay); assay type: biochemical; details: GST-tagged Tnks-1 (1023-1327 aa)
T2 construct: GST-tagged Tnks-1 (1023-1327 aa, prepared in-house); made in house
T2 sequence (O95271 1023-1327): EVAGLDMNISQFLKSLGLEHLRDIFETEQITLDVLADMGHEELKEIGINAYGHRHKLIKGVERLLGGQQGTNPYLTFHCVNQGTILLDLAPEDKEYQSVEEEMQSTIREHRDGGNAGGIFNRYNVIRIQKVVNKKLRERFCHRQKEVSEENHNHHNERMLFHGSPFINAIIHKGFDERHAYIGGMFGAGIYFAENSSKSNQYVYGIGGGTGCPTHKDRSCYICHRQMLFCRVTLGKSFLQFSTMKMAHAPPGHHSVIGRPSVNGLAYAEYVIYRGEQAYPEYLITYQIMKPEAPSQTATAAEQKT
Outline: (§1)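 GST-tagged TNKS1 or TNKS2 captured on glutathione plates and allowed to auto-PARsylate with biotinylated NAD with or without compound. Biotin-ADP-ribosylated enzyme detected by streptavidin-HRP and luminescence; IC50 relative to inhibitor-free reaction.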

TNKS2 = biological target: T3, TNKS2 (Homo sapiens, UniProt Q9H2K2); assay: TNKS2 activity ELISA (autoparsylation assay); assay type: biochemical; details: GST-tagged Tnks-2 (873-1166 aa); read-out: IC50 [M] TNKS2 ELISA
T3 construct: GST-tagged Tnks-2 (873-1166 aa, prepared in-house); made in house
T3 sequence (Q9H2K2 873-1166): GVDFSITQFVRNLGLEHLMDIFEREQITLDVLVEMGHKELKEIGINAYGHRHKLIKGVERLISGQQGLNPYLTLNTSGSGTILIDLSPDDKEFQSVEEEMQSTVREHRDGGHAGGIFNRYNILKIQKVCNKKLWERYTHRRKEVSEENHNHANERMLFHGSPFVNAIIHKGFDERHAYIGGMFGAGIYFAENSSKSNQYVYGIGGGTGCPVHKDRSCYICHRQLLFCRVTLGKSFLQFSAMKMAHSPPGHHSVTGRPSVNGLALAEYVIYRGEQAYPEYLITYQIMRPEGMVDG
Outline: as §1

Tankyrases = details: read-out: EC50 [M] TNKS cellular assay; DLD1 cells, 24 hours, Axin2 increase
Experimental: Measurement of Cellular Inhibition of Tankyrase
Cells of the colon carcinoma cell line DLD1 are plated in 96 well plates with 1.5×10^4 cells per well. Next day, cells are treated with a serial dilution of test compound in seven steps as triplicates with a final DMSO concentration of 0.3%. […] The amount of isolated Axin2 protein is determined in a Luminex^200 machine (Luminex Corporation) according to the manufacturer's instruction by counting 100 events per well. […] As controls cells are treated with solvent alone (neutral control) and with a Tankyrase reference inhibitor IWR-2 (3E−06 M) which refers as control for maximum increase of Axin2. For analysis, the obtained data are normalized against the untreated solvent control and fitted for determination of the EC50 values using the Assay Explorer software (Accelrys).

T1 sequence (P09874 whole entry): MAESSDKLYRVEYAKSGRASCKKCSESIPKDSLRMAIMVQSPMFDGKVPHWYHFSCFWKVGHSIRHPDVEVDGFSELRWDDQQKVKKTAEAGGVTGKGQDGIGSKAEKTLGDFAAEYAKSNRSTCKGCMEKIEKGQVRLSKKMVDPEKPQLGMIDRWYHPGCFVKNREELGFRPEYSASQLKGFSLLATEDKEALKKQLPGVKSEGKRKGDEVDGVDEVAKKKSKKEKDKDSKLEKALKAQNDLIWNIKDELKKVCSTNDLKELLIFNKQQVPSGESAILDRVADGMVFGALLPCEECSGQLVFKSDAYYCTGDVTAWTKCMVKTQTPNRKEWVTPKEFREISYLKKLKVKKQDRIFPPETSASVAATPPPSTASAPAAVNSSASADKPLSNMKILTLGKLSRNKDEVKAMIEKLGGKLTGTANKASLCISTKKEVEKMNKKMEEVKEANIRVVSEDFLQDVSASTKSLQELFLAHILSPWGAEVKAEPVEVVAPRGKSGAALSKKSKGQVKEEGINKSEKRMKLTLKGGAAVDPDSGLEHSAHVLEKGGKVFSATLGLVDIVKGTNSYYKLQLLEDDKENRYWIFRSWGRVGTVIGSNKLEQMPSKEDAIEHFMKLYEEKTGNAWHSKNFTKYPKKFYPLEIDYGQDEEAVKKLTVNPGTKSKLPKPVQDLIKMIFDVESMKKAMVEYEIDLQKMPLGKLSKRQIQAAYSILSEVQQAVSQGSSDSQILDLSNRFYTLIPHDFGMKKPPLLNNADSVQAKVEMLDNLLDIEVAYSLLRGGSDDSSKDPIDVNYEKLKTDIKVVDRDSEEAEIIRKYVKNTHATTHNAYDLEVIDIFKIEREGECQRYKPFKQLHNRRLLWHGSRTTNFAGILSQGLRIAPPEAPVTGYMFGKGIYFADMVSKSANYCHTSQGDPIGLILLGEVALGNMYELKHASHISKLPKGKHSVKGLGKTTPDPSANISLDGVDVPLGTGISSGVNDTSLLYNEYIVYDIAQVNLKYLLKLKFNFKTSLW

Structure (SMILES) | IC50 (PARP-1) | IC50 (TNKS1) | IC50 (TNKS2) | EC50 (Tankyrases)
CCn1cc(C(=O)C2CCN(C(=O)CCCc3nn4c(C)ccc4c(=O)[nH]3)CC2)cn1 [Compound C222, 2-{4-[4-(1-Ethyl-1H-pyrazole-4-carbonyl)-piperidin-1-yl]-4-oxo-butyl}-7-methyl-3H-pyrrolo[2,1-f][1,2,4]triazin-4-one] | 1200 nM | 0.24 nM | 2.9e-10 M | 2.6e-09 M
Cc1ccc2c(=O)[nH]c(CCCC(=O)N3CCC(C(=O)c4cnn(C(C)C)c4)CC3)nn12 [Compound C223, 2-{4-[4-(1-Isopropyl-1H-pyrazole-4-carbonyl)-piperidin-1-yl]-4-oxo-butyl}-7-methyl-3H-pyrrolo[2,1-f][1,2,4]triazin-4-one] | 840 nM | 0.6 nM | 5.1e-10 M | 3.3e-09 M
CCn1cc(C(=O)C2CCN(C(=O)CCCc3nc4c(C)csc4c(=O)[nH]3)CC2)cn1 [Compound C224, 2-{4-[4-(1-Ethyl-1H-pyrazole-4-carbonyl)-piperidin-1-yl]-4-oxo-butyl}-7-methyl-3H-thieno[3,2-d]pyrimidin-4-one trifluoroacetate] | 3100 nM | 0.87 nM | 7.1e-10 M | 1.8e-08 M
Cc1csc2c(=O)[nH]c(CCCC(=O)N3CCC(C(=O)c4cnn(C(C)C)c4)CC3)nc12 [Compound C225, 2-{4-[4-(1-Isopropyl-1H-pyrazole-4-carbonyl)-piperidin-1-yl]-4-oxo-butyl}-7-methyl-3H-thieno[3,2-d]pyrimidin-4-one] | 700 nM | 0.73 nM | 4e-10 M | 1.4e-08 M
Cc1scc2c(=O)[nH]c(CCCC(=O)N3CCC(C(=O)c4cnn(C(C)C)c4)CC3)nc12 [Compound C226, 2-{4-[4-(1-Isopropyl-1H-pyrazole-4-carbonyl)-piperidin-1-yl]-4-oxo-butyl}-7-methyl-3H-thieno[3,4-d]pyrimidin-4-one] | 1800 nM | 1.6 nM | 9.5e-10 M | 2.5e-08 M
COc1ccc(C(=O)C2CCN(C(=O)CCCc3nc4c(c(=O)[nH]3)CCCC4)CC2)cc1 [Compound C227, 2-{4-[4-(4-Methoxy-benzoyl)-piperidin-1-yl]-4-oxo-butyl}-5,6,7,8-tetrahydro-3H-quinazolin-4-one] | 410 nM | 0.66 nM | 4.2e-10 M | 3.7e-09 M
CC(C)n1cc(C(=O)C2CCN(C(=O)CCCc3nc4c(c(=O)[nH]3)COCC4)CC2)cn1 [Compound C229, 2-{4-[4-(1-Isopropyl-1H-pyrazole-4-carbonyl)-piperidin-1-yl]-4-oxo-butyl}-3,5,7,8-tetrahydro-pyrano[4,3-d]pyrimidin-4-one] | 24000 nM | 23 nM | 2.3e-09 M | 1.6e-06 M
Cn1cc(C(=O)C2CCN(C(=O)CCCc3nc4c(c(=O)[nH]3)CCCC4)CC2)cn1 [Compound C230, 2-{4-[4-(1-Methyl-1H-pyrazole-4-carbonyl)-piperidin-1-yl]-4-oxo-butyl}-5,6,7,8-tetrahydro-3H-quinazolin-4-one] | 1800 nM | 5.1 nM | 2.1e-09 M | 4.7e-08 M
COc1ccc(C(=O)C2CCN(C(=O)CCCc3cn4nc(C)cc4c(=O)[nH]3)CC2)cn1 [Compound C231, 6-{4-[4-(6-Methoxy-pyridine-3-carbonyl)-piperidin-1-yl]-4-oxo-butyl}-2-methyl-5H-pyrazolo[1,5-a]pyrazin-4-one] | 4500 nM | 0.36 nM | 5.4e-10 M | 5.4e-09 M
N#Cc1cc(C2CCN(C(=O)CCCc3nc4c(c(=O)[nH]3)CCCC4)CC2)cnc1N [Compound C232, 6-Amino-1′-[4-(4-oxo-3,4,5,6,7,8-hexahydro-quinazolin-2-yl)-butyryl]-1′,2′,3′,4′,5′,6′-hexahydro-[3,4′]bipyridinyl-5-carbonitrile] | 2700 nM | 20 nM | 5.7e-09 M | 5.6e-08 M
CCn1cc(C(=O)C2CCN(C(=O)CCCc3nn4cc(C)cc4c(=O)[nH]3)CC2)cn1 [Compound C233, 2-{4-[4-(1-Ethyl-1H-pyrazole-4-carbonyl)-piperidin-1-yl]-4-oxo-butyl}-6-methyl-3H-pyrrolo[2,1-f][1,2,4]triazin-4-one] | 5300 nM | 1.2 nM | 2.3e-09 M | 5.4e-08 M
Cc1ccc(C(=O)C2CCN(C(=O)CCCc3nc4c(cnn4C)c(=O)[nH]3)CC2)cc1 [Compound C234, 1-Methyl-6-{4-[4-(4-methyl-benzoyl)-piperidin-1-yl]-4-oxo-butyl}-1,5-dihydro-pyrazolo[3,4-d]pyrimidin-4-one] | 18000 nM | 0.66 nM | 3e-10 M | 1.6e-08 M
Cc1ccc(C(=O)C2CCN(C(=O)CCCc3nn4cccc4c(=O)[nH]3)CC2)cc1 [Compound C235, 2-{4-[4-(4-Methyl-benzoyl)-piperidin-1-yl]-4-oxo-butyl}-3H-pyrrolo[2,1-f][1,2,4]triazin-4-one] | 3000 nM | 0.57 nM | 3.9e-10 M | 3.9e-09 M
Cn1ncc2c(=O)[nH]c(CCCC(=O)N3CCC(C(=O)c4ccc(Cl)cc4)CC3)nc21 [Compound C236, 6-{4-[4-(4-Chloro-benzoyl)-piperidin-1-yl]-4-oxo-butyl}-1-methyl-1,5-dihydro-pyrazolo[3,4-d]pyrimidin-4-one] | 10000 nM | 0.48 nM | 2.4e-10 M | 2.1e-08 M
O=C(c1ccc(Cl)cc1)C1CCN(C(=O)CCCc2nn3cccc3c(=O)[nH]2)CC1 [Compound C237, 2-{4-[4-(4-Chloro-benzoyl)-piperidin-1-yl]-4-oxo-butyl}-3H-pyrrolo[2,1-f][1,2,4]triazin-4-one] | 10000 nM | 0.66 nM | 3e-10 M | 1e-08 M
Cn1cc(C(=O)C2CCN(C(=O)CCCc3nn4c(F)c(F)cc4c(=O)[nH]3)CC2)cn1 [Compound C238, 6,7-Difluoro-2-{4-[4-(1-methyl-1H-pyrazole-4-carbonyl)-piperidin-1-yl]-4-oxo-butyl}-3H-pyrrolo[2,1-f][1,2,4]triazin-4-one] | 4100 nM | 1.5 nM | 1.5e-09 M | 5.6e-08 M
COc1ccc(C(=O)C2CCN(C(=O)CCCc3nc(C)c(C)c(=O)[nH]3)CC2)cc1 [Compound C239, 2-{4-[4-(4-Methoxy-benzoyl)-piperidin-1-yl]-4-oxo-butyl}-5,6-dimethyl-3H-pyrimidin-4-one] | 24000 nM | 2.6 nM | 8.2e-10 M | 1.5e-08 M
Cc1nc(CCCC(=O)N2CCC(C(=O)c3ccc(F)cc3)CC2)[nH]c(=O)c1C [Compound C240, 2-{4-[4-(4-Fluoro-benzoyl)-piperidin-1-yl]-4-oxo-butyl}-5,6-dimethyl-3H-pyrimidin-4-one] | 19000 nM | 14 nM | 5.3e-09 M | 5.8e-07 M
CCn1cc(C(=O)C2CCN(C(=O)CCCc3nc4c(ccn4C)c(=O)[nH]3)CC2)cn1 [Compound C243, 2-{4-[4-(1-Ethyl-1H-pyrazole-4-carbonyl)-piperidin-1-yl]-4-oxo-butyl}-7-methyl-3,7-dihydro-pyrrolo[2,3-d]pyrimidin-4-one] | 4200 nM | 0.47 nM | 2.2e-10 M | 3.4e-08 M
Cn1ncc2c(=O)[nH]c(CCCC(=O)N3CCC(C(=O)c4ccc(C(C)(F)F)cc4)CC3)nc21 [Compound C245, 6-(4-{4-[4-(1,1-Difluoro-ethyl)-benzoyl]-piperidin-1-yl}-4-oxo-butyl)-1-methyl-1,5-dihydro-pyrazolo[3,4-d]pyrimidin-4-one] | 5800 nM | 0.41 nM | 1.7e-10 M | 4.8e-09 M
Cn1ncc2c(=O)[nH]c(CCCC(=O)N3CCC(C(=O)c4ccc(F)c(F)c4)CC3)nc21 [Compound C246, 6-{4-[4-(3,4-Difluoro-benzoyl)-piperidin-1-yl]-4-oxo-butyl}-1-methyl-1,5-dihydro-pyrazolo[3,4-d]pyrimidin-4-one] | 13000 nM | 0.63 nM | 3.2e-10 M | 2.5e-08 M
O=C(c1ccc(Cl)cc1)C1CCN(C(=O)CCCc2nc3c(c(=O)[nH]2)COCC3)CC1 [Compound C247, 2-{4-[4-(4-Chloro-benzoyl)-piperidin-1-yl]-4-oxo-butyl}-3,5,7,8-tetrahydro-pyrano[4,3-d]pyrimidin-4-one trifluoroacetate] | 3500 nM | 3.3 nM | 6.6e-10 M | 2.1e-08 M
Cn1ccc2c(=O)[nH]c(CCCC(=O)N3CCC(C(=O)c4ccc(F)c(F)c4)CC3)nc21 [Compound C248, 2-{4-[4-(3,4-Difluoro-benzoyl)-piperidin-1-yl]-4-oxo-butyl}-7-methyl-3,7-dihydro-pyrrolo[2,3-d]pyrimidin-4-one] | 2400 nM | 0.7 nM | 2.3e-10 M | 8.7e-09 M
Cn1ccc2c(=O)[nH]c(CCCC(=O)N3CCC(C(=O)c4ccc(C(C)(F)F)cc4)CC3)nc21 [Compound C249, 2-(4-{4-[4-(1,1-Difluoro-ethyl)-benzoyl]-piperidin-1-yl}-4-oxo-butyl)-7-methyl-3,7-dihydro-pyrrolo[2,3-d]pyrimidin-4-one] | 1100 nM | 0.42 nM | 1.2e-10 M | 1.8e-09 M
COc1ccc(C(=O)C2CN(C(=O)CCCc3cn4cccc4c(=O)[nH]3)C2)cc1 [Compound D1, 3-{4-[3-(4-Methoxy-benzoyl)-azetidin-1-yl]-4-oxo-butyl}-2H-pyrrolo[1,2-a]pyrazin-1-one] | 3100 nM | 120 nM | 8.5e-08 M | 5.4e-07 M
